Reference: ChEMBL document CHEMBL3227980, “Optically pure (+)-nicotine from (+/-)-nicotine and biological comparisons with (-)-nicotine” (J Med Chem, 1979)

Legend:
[1] = Toxicity in iv dosed ICR mouse assessed as lethality; conditions: in vivo
[2] = in vivo; conditions: ICR, mouse, iv

SMILES | LD50 [1] | selectivity ratio [2]
CN1CCC[C@H]1c1cccnc1.O=C(O)C(O)C(O)C(=O)O.O=C(O)C(O)C(O)C(=O)O | 0.38 mg/kg | 7.24
CN1CCC[C@@H]1c1cccnc1.O=C(O)C(O)C(O)C(=O)O.O=C(O)C(O)C(O)C(=O)O | 2.75 mg/kg | 
